In US11911377B2, “Method for treating hypertension by using compound” (Fu Jen Catholic University, priority 2021, dated 2024):

What was measured:
[1] = test system: LARG-RhoA interaction; assay: LARG-RhoA interaction by co-immunoprecipitation and Western blot in Ang II-stimulated SHR VSMCs; assay type: cell-based, rat
Excerpt: (§1) The culture procedure of the primary cultured vascular smooth muscle cells (VSMCs) used in this example or the following examples is as follows. SHRs were anesthetized with Zoletil 50, and the thoracic aortas were immediately excised. The samples were then carefully cleaned of connective tissue and adherent fat. Each isolated aorta was cut open longitudinally, followed by endothelial removal by gently grazing the intimal surface. The denuded aortas were cut into approximately 2 mm^2 sections and then placed with the intimal side down. The M199 medium supplemented with 20% fetal bovine serum and antibiotics (100 U/ml penicillin and 100 μg/ml streptomycin) were then gently added to cover the tissues without disturbing the orientation of the explants. VSMCs were allowed to grow out from the explants for 7-10 days culture, and the tissues were removed.
The treatment method of the small molecule compounds used in this example or the following examples is as follows. Small molecule compounds were dissolved in pure water to test their effects on the VSMCs. […]
The procedure of cell harvest and protein extraction used in this example or the following examples is as follows. […] The protein concentrations were determined using a BSA Protein Assay kit. […]

[2] = test system: spontaneously hypertensive rats (SHRs); assay: Physiological signals recording (BP, HR) in anesthetized SHRs after intravenous injection; assay type: in vivo, rat; conditions: for decrease of BP: versus 0 min
Excerpt: According to the present invention, the statistical analysis used in the following examples is described as follows. For the physiological signals recording, the data from different time intervals of each rat was compared with that from before Y16 and Rhosin administration. Considering the differences of physiological conditions among individuals, the BP and HR are not calculated by the absolute value measured, but by the percentage of the BP or HR measured at each time point relative to those measured before administration (0 minutes). All data were representative of at least four independent experiments.
(§2) The animal model used in this example or the following examples is illustrated as follows. The Institutional Animal Care and Use Committee of the Fu Jen Catholic University, New Taipei, Taiwan (Approval No A10660), approved all of the animal procedures and experimental protocols. Male 16-week-old SHRs (body weight range: 350-370 g) were purchased from the National Laboratory Animal Center, Taipei, Taiwan. The animals were housed at a temperature of 21° C. under a 12 h light/dark cycle and fed a regular pellet diet. The animals were divided into three main groups—the Y16 group, the Rhosin group, and the Y16+Rhosin group. Each group was further divided into several subgroups according to the administered Y16 and Rhosin dose. Their concentrations are listed below: Y16 group: 0.2 mg/kg, 1 mg/kg, 5 mg/kg, 10 mg/kg, 20 mg/kg; Rhosin group: 5 mg/kg, 10 mg/kg, 20 mg/kg; Y16+Rhosin group: (Y16, 3 mg+Rhosin, 7 mg)/kg, (Y16, 5 mg+Rhosin, 10 mg)/kg.
(§3) The procedure of physiological signals recording and blood tests used in this example or the following examples is as follows. The rats were anesthetized with Zoletil 50 (30 mg/kg, intraperitoneal injection) and then attached to a physiological signal recording device. The Y16 and Rhosin were administered to them by intravenous injection. Their electrocardiography (ECG), heart rate (HR), and blood pressure (BP) measurements were taken for 90 minutes. After observing and recording the physiological signals, blood was drawn from the rats in an appropriate test tube and stored for subsequent tests for complete blood cell count, liver function and renal function. The rats were then sacrificed. Their heart, lungs, liver, and kidneys were removed and stored in paraformaldehyde for further histological examinations.

[3] = test system: SHR primary VSMCs; assay: MTT assay for cell viability of SHR primary VSMCs; assay type: cell-based, rat; conditions: 1, 2.5, 5, 10, 30, or 50 μmol/L Y16, 24 hours
Protocol: The procedure of 3-(4,5-dimethylthiazol-2-yl)-2,5-diphenyltetrazolium bromide (MTT) assay for cell viability used in this example is as follows. The cytotoxicity results for Y16 or Rhosin were determined using an MTT-based in vitro assay. Briefly, the media from the cell cultures was discarded and carefully aspirated. Next, 50 μL of serum-free media and 50 μL of MTT solution were added into each well. The plate was then incubated at 37° C. for 3 hours. After incubation, 150 μL of MTT solvent (4 mM HCl, 0.1% NP40 in isopropanol) was added into each well. The plate was then wrapped in foil and shaken on an orbital shaker for 15 minutes, and the absorbance was read at OD=590 nm.

[4] = test system: spontaneously hypertensive rats (SHRs); assay: Blood tests (complete blood cell count, liver function) in SHRs after dosing; assay type: in vivo, rat; conditions: for platelets count (PLC) or white blood cell counts (WBC): significant versus control
Protocol: as §2, §3
The animal model and experimental procedure of this example are the same as those described in Example 6. To observe whether the use of Y16 or Rhosin might have adverse effects or even harm to the animals, the blood of rats was drawn for the blood test after collecting the required physiological signals.

[5] = test system: spontaneously hypertensive rats (SHRs); assay: Histological examination (HE) of heart, liver, lung and kidney of SHRs; assay type: in vivo, rat; conditions: doses used in the experiments
Protocol: as §3
The procedure of histological examination used in this example is as follows. The tissues were fixed in 4% paraformaldehyde overnight and then embedded in paraffin for histological examination. The transverse sections (4 μm) were incubated at 75˜85° C. for 10 minutes, followed by stained with hematoxylin/eosin (HE), and examined under a light microscope. Severity of lesions was graded according to the methods described by Shackelford et al. (2002). […]

[6] = test system: myosin phosphatase target subunit 1 (MYPT1) phosphorylation; assay: MYPT1 phosphorylation by Western blot in Ang II-stimulated SHR VSMCs; assay type: cell-based, rat
Excerpt: as §1
The treatment method of the small molecule compounds used in this example or the following examples is as follows. Small molecule compounds were dissolved in pure water to test their effects on the VSMCs. Different concentrations of Y16 or the combination of Y16+Rhosin were administered for 24 hours, followed by stimulation with 10^−7M angiotensin II (Ang II) for 10 min. The Y16 concentrations used were as follows: 1 μM, 2.5 μM, 5 μM, 10 μM, 30 μM, 50 μM.
The procedure of cell harvest and protein extraction used in this example or the following examples is as follows. Culture dishes were placed on ice and washed twice with ice-cold phosphate-buffered saline (PBS). All subsequent procedures were performed over ice. […] The protein concentrations were determined using a BSA Protein Assay kit.
The procedure of Western blot analysis used in this example or the following examples is as follows. […] Signals were visualized using a UVP Imaging System (UVP) or with X-ray film, and the results were expressed as the densitometric ratio of target protein/GAPDH or phosphor-MYPT1/total-MYPT1. […]

Structure (SMILES): Cc1cccc(COc2cccc(/C=C3\C(=O)NN(c4ccccc4)C3=O)c2)c1 [Y16, (E)-4-(3-(3-methylbenzyloxy)benzylidene)-1-phenylpyrazolidine-3,5-dione]
- LARG-RhoA interaction, relative amount of RhoA normalized to GAPDH ([1]; 50 μM Y16, 24 h, then 10^−7M Ang II 10 min, control 0.939±0.121, p<0.001): 0.469±0.074
- inhibition of LARG-RhoA complex formation induced by Ang II ([1]; Y16 1-50 μM, 24 h): dose-dependently inhibited
- effect on BP ([2]; 0.2 mg/kg iv): no effects on BP
- effect on BP ([2]; 1 mg/kg iv): no effects on BP
- duration of BP decrease ([2]; 5 mg/kg iv): 30 min
- decrease of BP ([2]; 5 mg/kg iv): 21%
- BP as percentage of BP before administration (0 min) ([2]; 5 mg/kg iv, p=0.0081): 79%±13%
- duration of BP decrease ([2]; 10 mg/kg iv): over 60 minutes
- decrease of BP ([2]; 10 mg/kg iv): 21%
- BP as percentage of BP before administration (0 min) ([2]; 10 mg/kg iv, p=0.0007): 79%±12%
- duration of BP decrease ([2]; 20 mg/kg iv): over 60 minutes
- BP as percentage of BP before administration (0 min) ([2]; 20 mg/kg iv, 20 minutes, p=0.0187): 58%±8%
- reduction of HR ([2]; 20 mg/kg iv, for 30 minutes, not statistically significant): 16%
- maximum blood pressure reduction effect ([2]; 20 mg/kg iv, in 20 minutes): 42%
- HR as percentage of HR before administration (0 min) ([2]; 20 mg/kg iv, p=0.1067): 84%±8%
- effect on the growth (cell viability) of SHR VSMCs [3]: no conspicuous effect on the growth
- platelets count (PLC) or white blood cell counts (WBC) ([4]; 0.2 mg/kg iv): slightly high
- platelets count (PLC) or white blood cell counts (WBC) ([4]; 1 mg/kg iv): slightly high
- abnormalities regarding complete blood cell count and liver function ([4]; doses used in the experiments, iv): did not cause any overt abnormalities
- injuries by histological analyses of heart, liver, lungs, and kidneys [5]: did not cause any overt injuries
- phospho-MYPT1 normalized to total-MYPT1 ([6]; 5 μM Y16, 24 h, then 10^−7M Ang II 10 min, control 0.994±0.048, P=0.041): 0.642±0.199
- inhibition of MYPT1 phosphorylation ([6]; Y16 1-50 μM, 24 h): dose-dependent inhibition
- working concentrations required for the effective inhibition of MYPT1 phosphorylation ([6]; lowest concentration with statistically significant difference): 5 µM
